Structures are written as SMILES. Structures can show the parent of a compound that is named as a salt.

The assay has as its target T1, human cannabinoid CB2 receptor (Homo sapiens, UniProt P34972).
T1 construct: expressed in transfected cells; host or cells: Saccharomyces cerevisiae strain MMY23 (integration at the ura3 locus, GPD promoter)
Nature of the assay: Cannabinoid CB2 receptor agonist activity, yeast reporter assay. The assay is classed as cell-based. The following applies: for Emax: relative to HU210, yeast cells expressing human CB2, read-out: efficacy value (Emax) at the cloned human cannabinoid CB2 receptor; for EC50: yeast (Saccharomyces cerevisiae) cells expressing human CB2, agonist, read-out: EC50 at the cloned human cannabinoid CB2 receptor. Here is the method: The cannabinoid CB2 receptor agonist activity of the compounds of formula (I) was determined in accordance with the following experimental method.
Yeast (Saccharomyces cerevisiae) cells expressing the human cannabinoid CB2 receptor were generated by integration of an expression cassette into the ura3 chromosomal locus of yeast strain MMY23. This cassette consisted of DNA sequence encoding the human CB2 receptor flanked by the yeast GPD promoter to the 5′ end of CB2 and a yeast transcriptional terminator sequence to the 3′ end of CB2. MMY23 expresses a yeast/mammalian chimeric G-protein alpha subunit in which the C-terminal 5 amino acids of Gpa1 are replaced with the C-terminal 5 amino acids of human Gαi3 (as described in Brown et al. (2000), Yeast 16:11-22). Cells were grown at 30° C. in liquid Synthetic Complete (SC) yeast media (Guthrie and Fink (1991), Methods in Enzymology, Vol. 194) lacking uracil, tryptophan, adenine and leucine to late logarithmic phase (approximately 6 OD600/ml).
Agonists were prepared as 10 mM stocks in DMSO. EC50 values (the concentration required to produce 50% maximal response) were estimated using dilutions of between 3- and 5-fold (BiomekFX, Beckman) into DMSO. Agonist solutions in DMSO (1% final assay volume) were transferred into black, clear bottom, microtitre plates from NUNC (96- or 384-well). Cells were suspended at a density of 0.2 OD600/ml in SC media lacking histidine, uracil, tryptophan, adenine and leucine and supplemented with 10 mM 3-aminotriazole, 0.1M sodium phosphate pH 7.0, and […] fluorescein di-β-D-glucopyranoside (FDGlu). This mixture (50 ul per well for 384-well plates, 200 ul per well for 96-well plates) was added to agonist in the assay plates (Multidrop 384, Labsystems). After incubation at 30° C. for 24 hours, fluorescence resulting from degradation of FDGlu to fluorescein due to exoglucanase, an endogenous yeast enzyme produced during agonist-stimulated cell growth, was determined using a Spectrofluor microtitre plate reader (Tecan; excitation wavelength: 485 nm; emission wavelength: 535 nm). Fluorescence was plotted against compound concentration an iteratively curve fitted using a four parameter fit to generate a concentration effect value. Efficacy (Emax) was calculated from the equation
Emax=Max[compound X]−Min[compound X]/Max[HU210]−Min[HU210]×100%
where Max[compound X] and Min[compound X] are the fitted maximum and minimum respectively from the concentration effect curve for compound X, and Max[HU210] and Min[HU210] are the fitted maximum and minimum respectively from the concentration effect curve for (6aR,10aR)-3-(1,1′-Dimethylheptyl)-6a,7,10,10a-tetrahydro-1-hydroxy-6,6-dimethyl-6H-dibenzo[b,d]pyran-9-methanol (HU210; available from Tocris). Equieffective molar ratio (EMR) values were calculated from the equation
Where EC50 [compound X] is the EC50 of compound X and EC50 [HU210] is the EC50 of HU210.
(In general: A reporter such as luciferase makes a cellular process visible.)

T1 sequence (P34972 whole entry): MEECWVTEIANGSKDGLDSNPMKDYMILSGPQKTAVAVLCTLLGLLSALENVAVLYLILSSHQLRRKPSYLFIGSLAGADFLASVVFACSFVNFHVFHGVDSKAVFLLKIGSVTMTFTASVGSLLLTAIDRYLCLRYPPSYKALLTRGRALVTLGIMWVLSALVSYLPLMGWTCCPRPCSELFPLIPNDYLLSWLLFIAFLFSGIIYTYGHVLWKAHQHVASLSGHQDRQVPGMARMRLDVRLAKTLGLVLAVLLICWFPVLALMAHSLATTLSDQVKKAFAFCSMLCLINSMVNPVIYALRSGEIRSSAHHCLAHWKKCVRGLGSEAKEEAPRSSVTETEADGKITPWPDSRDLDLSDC

Usually Emax stands for the maximal effect, on the per cent scale that the assay sets. The term EC50 denotes the concentration giving half of the maximal effect. Take `CC(C)c1nc(Nc2cccc(Cl)c2)ncc1C(=O)NCC1CCCCC1` [Example 1]: the Emax was more than 50% and the EC50 was less than 300 nM.
The matching figures for `CC(C)c1nc(Nc2cccc(Cl)c2)ncc1C(=O)NCC1CCOCC1` [Example 2, 2-(3-Chlorophenylamino)-4-isopropylpyrimidin-5-carboxylic acid (tetrahydro-pyran-4-ylmethyl)-amide]: more than 50% and less than 300 nM.
In the same order, the values of `CCc1nc(Nc2cccc(Cl)c2)ncc1C(=O)NCC1CCOCC1` [Example 4, 2-(3-Chlorophenylamino)-4-ethylpyrimidin-5-carboxylic acid (tetrahydro-pyran-4-ylmethyl)-amide] are more than 50% and 300 to 1000 nM.
The matching figures for `CC(c1nc(Nc2cccc(Cl)c2)ncc1C(=O)NCC1CCOCC1)N(C)C` (stereo not shown) [Example 5, 2-[(3-chlorophenyl)amino]-4-[1-(dimethylamino)ethyl]-N-(tetrahydro-2H-pyran-4-ylmethyl)-5-pyrimidinecarboxamide hydrochloride]: less than 50% and more than 1000 nM.
Consider `CCc1nc(Nc2cccc(Cl)c2)ncc1C(=O)NCC1CCCCC1` [Example 3], for which the Emax was more than 50% and the concentration giving a half-maximal response (EC50) was less than 300 nM.

These data come from US20090264452A1 (priority 2004, published 2009).
